The experiment deals with endogenous cellular STAT1 (phosphorylated at Tyr701) in NCI-H1373 cells. As to the kind of experiment: Phospho-STAT1 (Tyr701) LANCE Ultra TR-FRET Detection Assay. The experiment is classed as cell-based. Conditions: Homo sapiens, NCI-H1373, 48 h, phospho-STAT1 (Tyr701) induction, read-out: NH1373 pSTAT1 EC50. A general note: TR-FRET usually uses a lanthanide donor and a delayed reading to cut background.
For the compound `O=c1[nH]ncc(N[C@@H](CO)CCCn2cnc3cc(-c4ncc(C(F)(F)F)cn4)c(F)cc3c2=O)c1C(F)(F)F` [Example 164, 6-fluoro-3-[(4R)-5-hydroxy-4-[[6-oxo-5-(trifluoromethyl)-1H-pyridazin-4-yl]amino]pentyl]-7-[5-(trifluoromethyl)pyrimidin-2-yl]quinazolin-4-one], the EC50 – broadly, the concentration that produces a half-maximal response – is 219 nM.

On to `Nc1nc(-c2cc3ccn(C[C@@H]4CC[C@H](Nc5cn[nH]c(=O)c5C(F)(F)F)C4)c(=O)c3cc2F)ncc1C(F)(F)F` [Example 444, 6-(4-amino-5-(trifluoromethyl)pyrimidin-2-yl)-7-fluoro-2-(((1R,3S)-3-((6-oxo-5-(trifluoromethyl)-1,6-dihydropyridazin-4-yl)amino)cyclopentyl)methyl)isoquinolin-1(2H)-one], for which the EC50 was determined as 25.1 nM.

For the compound `Cc1cnc(N)nc1-c1cc2ncn(CCC[C@H](C)Nc3cn[nH]c(=O)c3C(F)(F)F)c(=O)c2cc1F` [Example 79, (S)-7-(2-amino-5-methylpyrimidin-4-yl)-6-fluoro-3-(4-((6-oxo-5-(trifluoromethyl)-1,6-dihydropyridazin-4-yl)amino)pentyl)quinazolin-4(3H)-one], the 50% effective concentration (EC50) is 1500 nM.

Take `Nc1nc(-c2cc3ccn(C[C@@H]4CCC[C@H](Nc5cn[nH]c(=O)c5C(F)(F)F)C4)c(=O)c3c(F)c2F)ncc1C(F)(F)F` [Example 234]: the EC50 is 1.55 nM.

Turning to `C[C@@H](CCCn1ccc2cc(-c3ncc(N)cn3)c(F)cc2c1=O)Nc1cn[nH]c(=O)c1C(F)(F)F` [Example 199, (S)-6-(5-aminopyrimidin-2-yl)-7-fluoro-2-(4-((6-oxo-5-(trifluoromethyl)-1,6-dihydropyridazin-4-yl)amino)pentyl)isoquinolin-1(2H)-one], the EC50 stood at 317 nM.

In the case of `O=c1[nH]ncc(N[C@H]2CC[C@@H]2CCn2cnc3cc(-c4ncc(C(F)(F)F)cn4)c(F)cc3c2=O)c1C(F)(F)F` [Example 452, 6-fluoro-3-[2-[(1R,2S)-2-[[6-oxo-5-(trifluoromethyl)-1H-pyridazin-4-yl]amino]cyclobutyl]ethyl]-7-[5-(trifluoromethyl)pyrimidin-2-yl]quinazolin-4-one], the 50% effective concentration (EC50) was found to be 35.9 nM.

In the case of `O=c1[nH]ncc(O[C@H]2CCC[C@@H](Cn3ccc4cc(-c5ncc(C(F)F)cn5)c(F)cc4c3=O)C2)c1C(F)(F)F` [Example 456, 6-(5-(difluoromethyl)pyrimidin-2-yl)-7-fluoro-2-(((1R,3S)-3-((6-oxo-5-(trifluoromethyl)-1,6-dihydropyridazin-4-yl)oxy)cyclohexyl)methyl)isoquinolin-1(2H)-one], the concentration for a half-maximal effect (EC50) was 48 nM.

For `C[C@@H](CCCn1ccc2cc(-c3ncc(Cl)c(N)n3)c(F)cc2c1=O)Nc1cn[nH]c(=O)c1C(F)(F)F` [Example 202, (S)-6-(4-amino-5-chloropyrimidin-2-yl)-7-fluoro-2-(4-((6-oxo-5-(trifluoromethyl)-1,6-dihydropyridazin-4-yl)amino)pentyl)isoquinolin-1(2H)-one], the EC50 is 1.84 nM.

As to `CC[C@@H](CCCn1ccc2cc(-c3ncc(C(F)(F)F)c(N)n3)c(F)cc2c1=O)Nc1cn[nH]c(=O)c1C(F)(F)F` [Example 71, 6-[4-amino-5-(trifluoromethyl)pyrimidin-2-yl]-7-fluoro-2-[(4S)-4-[[6-oxo-5-(trifluoromethyl)-1H-pyridazin-4-yl]amino]hexyl]isoquinolin-1-one], the concentration for a half-maximal effect (EC50) came out at 5.94 nM.

Turning to `COc1cnc(-c2cc3ccn(CCC[C@H](C)Nc4cn[nH]c(=O)c4C(F)(F)F)c(=O)c3cc2F)nc1N` [Example 102, 6-(4-amino-5-methoxy-pyrimidin-2-yl)-7-fluoro-2-[(4S)-4-[[6-oxo-5-(trifluoromethyl)-1H-pyridazin-4-yl]amino]pentyl]isoquinolin-1-one], the EC50 was 8.23 nM.

Source of the values: patent US12459922B2 (Gilead Sciences, Inc., priority 2022, dated 2025).
